Values joined by “and” are separate entries in the source; they are usually repeats but may differ in a detail not shown here. Equal values may be shown once.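 The compound was tested at five concentrations on cells cultured in 96-well plates, with a 48-hour exposure period. Abbreviation: GI50, concentration required for 50% inhibition of growth. TGI denotes the concentration required for complete inhibition of growth.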
Experiments:
Assay in all cases: NCI-60 cell line screen, 48 h
HOP-62 NSCLC = test system: HOP-62 NSCLC
HOP-92 NSCLC = test system: HOP-92 NSCLC
LOX IMVI melanoma = test system: LOX IMVI melanoma
HCC-2998 colon = test system: HCC-2998 colon
COLO 205 colon = test system: COLO 205 colon
KM12 colon = test system: KM12 colon
EKVX NSCLC = test system: EKVX NSCLC

Row | Compound | GI50 (HOP-62 NSCLC) | TGI (HOP-62 NSCLC) | TGI (HOP-92 NSCLC) | GI50 (LOX IMVI melanoma) | TGI (LOX IMVI melanoma) | GI50 (HCC-2998 colon) | TGI (HCC-2998 colon) | GI50 (COLO 205 colon) | TGI (COLO 205 colon) | GI50 (KM12 colon) | TGI (KM12 colon) | TGI (EKVX NSCLC) | GI50 (EKVX NSCLC) | GI50 (HOP-92 NSCLC)
1 | COc1cccc([C@H]2CC(=O)c3cc4c(cc3N2)OCO4)c1 | 2.56 µM | > 100 µM | > 100 µM | 0.273 µM | > 100 µM | 0.0283 µM | 0.115 µM | 0.0367 µM | 1.22 µM | 0.0336 µM | 1.25 µM | – | – | –
2 | CC(C)=CCN=C(N)N | – | – | > 100 µM | – | > 100 µM | – | > 100 µM | – | > 100 µM | – | > 100 µM | > 100 µM | – | –
3 | O=P([O-])(O)OP(=O)([O-])O.[NH-][C@H]1CCCC[C@@H]1[NH-].[OH-].[OH-].[Pt+4] | 19.3 µM | 35.4 µM | 60.1 µM | 33.2 µM | > 100 µM | 28.8 µM | 85.2 µM | 88.2 µM | > 100 µM | > 100 µM | > 100 µM | 68.3 µM | 25.3 µM | 22 µM
4 | COc1cc(C(=O)OCCCCCCCCCCC[P+](c2ccccc2)(c2ccccc2)c2ccccc2)ccc1O | – | – | – | – | – | 0.57 µM | 1.92 µM | 1.49 µM | 3.06 µM | – | – | – | – | –
5 | COc1ccc(-c2[nH]ncc2-c2cc3c(c(OC)c2)OCC(=O)N3)cc1 | 0.544 µM | 80.3 µM | 99.7 µM | 0.522 µM | > 100 µM | 1.14 µM | 27 µM | 0.465 µM | 12.8 µM | 0.36 µM | 32.8 µM | > 33.7 µM | 0.675 µM | 1.11 µM
6 | C=C(CNC(=O)Nc1ccc(-c2ccccc2)cc1)c1ccc(C(=O)Nc2ccccc2N)cc1 | 49.1 µM | > 100 µM | – | > 100 µM | > 100 µM | > 100 µM | > 100 µM | > 100 µM | > 100 µM | 10.8 µM | > 100 µM | > 100 µM | > 100 µM | –
7 | CC(C)[C@](O)(c1ccc2cc(OC(F)F)c(OC(F)F)cc2c1)c1cn[nH]n1 | 17.2 µM and 15.6 µM | 36.9 µM and 31.5 µM | 32.2 µM and 29.3 µM | 15.7 µM and 14.8 µM | 29.1 µM and 28.9 µM | 18.2 µM and 18.4 µM | 36.3 µM and 34.5 µM | 17 µM and 21.5 µM | 33.9 µM and 43.2 µM | 20.3 µM and 15.2 µM | 41.7 µM and 31.2 µM | 44.8 µM and 39.9 µM | 14 µM and 13.6 µM | 13.6 µM and 13.5 µM
8 | O=C(c1ccc2ccccc2c1O)N1CCCCC1 | – | > 100 µM | > 100 µM | – | > 100 µM | – | > 100 µM | – | > 100 µM | – | > 100 µM | > 100 µM | – | –
9 | C=CC(=O)Nc1ccc(Nc2nccc(-c3ccc(N4CCCC4)c(C#N)c3)n2)cc1 | 10.9 µM | > 25 µM | > 25 µM | > 25 µM | > 25 µM | > 25 µM | > 25 µM | > 25 µM | > 25 µM | > 25 µM | > 25 µM | > 25 µM | > 25 µM | > 25 µM
10 | CC/C(Cc1ccccc1)=C(\c1ccc(OCCN2CCCCCC2)cc1)c1ccc(OC(=O)NCc2ccccc2)cc1 | 7.02 µM | 14.5 µM | 9.93 µM | 0.924 µM | 1.75 µM | 2.01 µM | 8.05 µM | 1.01 µM | 1.99 µM | 1.61 µM | 5.49 µM | 14.1 µM | 6.29 µM | 3 µM

Source: PubChem BioAssay (NCI)
